Measured values reported in ChEMBL document CHEMBL1130922, “Solid phase synthesis of oligomannopeptoids that mimic the concanavalin A-binding trimannoside” (Bioorg Med Chem Lett, 1998).

Assay: Dissociation constant for binding to concanavalin A (ConA) was determined by fluorescence anisotropy assay

Row | Kd | SMILES
1 | 31 uM l-1 | CN(C)c1cccc2c(S(=O)(=O)N(CCO[C@H]3O[C@@H](CO)[C@@H](O)[C@H](O)[C@H]3O)CC(N)=O)cccc12
2 | 122 uM l-1 | CO[C@H]1[C@@H](OCCN(CC(N)=O)S(=O)(=O)c2cccc3c(N(C)C)cccc23)O[C@@H](CO)[C@@H](O)[C@@H]1O
3 | 18 uM l-1 | CN(C)c1cccc2c(S(=O)(=O)N(CCO[C@H]3O[C@@H](CO)[C@@H](O)[C@H](O)[C@H]3O)CC(=O)N(CCO[C@H]3O[C@@H](CO)[C@@H](O)[C@H](O)[C@H]3O)CC(N)=O)cccc12

The next lines start with the compound.

Row | SMILES | Kd
4 | CN(C)c1cccc2c(S(=O)(=O)N(CCO[C@H]3O[C@@H](CO)[C@@H](O)[C@H](O)[C@H]3O)CC(=O)N(CCO[C@H]3O[C@@H](CO)[C@@H](O)[C@H](O)[C@H]3O)CC(=O)N(CCO[C@H]3O[C@@H](CO)[C@@H](O)[C@H](O)[C@H]3O)CC(=O)N(CCO[C@H]3O[C@@H](CO)[C@@H](O)[C@H](O)[C@H]3O)CC(=O)N(CCO[C@H]3O[C@@H](CO)[C@@H](O)[C@H](O)[C@H]3O)CC(N)=O)cccc12 | 14 uM l-1
5 | CN(C)c1cccc2c(S(=O)(=O)N(CCO[C@H]3O[C@@H](CO)[C@@H](O[C@H]4O[C@@H](CO)[C@@H](O[C@H]5O[C@@H](CO)[C@@H](O)[C@H](O)[C@H]5O)[C@H](O)[C@H]4O)[C@H](O)[C@H]3O)CC(N)=O)cccc12 | 2 uM l-1
6 | CN(C)c1cccc2c(S(=O)(=O)N(CCO[C@H]3O[C@@H](CO)[C@@H](O)[C@H](O)[C@H]3O)CC(=O)N(CCO[C@H]3O[C@@H](CO)[C@@H](O)[C@H](O)[C@H]3O)CC(=O)N(CCO[C@H]3O[C@@H](CO)[C@@H](O)[C@H](O)[C@H]3O)CC(=O)N(CCO[C@H]3O[C@@H](CO)[C@@H](O)[C@H](O)[C@H]3O)CC(=O)N(CCO[C@H]3O[C@@H](CO)[C@@H](O)[C@H](O)[C@H]3O)CC(=O)N(CCO[C@H]3O[C@@H](CO)[C@@H](O)[C@H](O)[C@H]3O)CC(N)=O)cccc12 | 12 uM l-1
7 | CN(C)c1cccc2c(S(=O)(=O)N(CCO[C@H]3O[C@@H](CO)[C@@H](O)[C@H](O)[C@H]3O)CC(=O)N(CCO[C@H]3O[C@@H](CO)[C@@H](O)[C@H](O)[C@H]3O)CC(=O)N(CCO[C@H]3O[C@@H](CO)[C@@H](O)[C@H](O)[C@H]3O)CC(=O)N(CCO[C@H]3O[C@@H](CO)[C@@H](O)[C@H](O)[C@H]3O)CC(N)=O)cccc12 | 12 uM l-1
8 | CN(C)c1cccc2c(S(=O)(=O)N(CCO[C@H]3O[C@@H](CO)[C@@H](O)[C@H](O)[C@H]3O)CC(=O)N(CCO[C@H]3O[C@@H](CO)[C@@H](O)[C@H](O)[C@H]3O)CC(=O)N(CCO[C@H]3O[C@@H](CO)[C@@H](O)[C@H](O)[C@H]3O)CC(N)=O)cccc12 | 9 uM l-1
